Patent US8134015B2, “Compound inhibiting in vivo phosphorous transport and medicine containing the same” (Kyowa Hakko Kirin Co., Ltd., priority 2003, dated 2012)
Structures can show the parent of a compound that is named as a salt.

Molecular target: T1, rat NaPi-2b (Rattus norvegicus, UniProt Q9JJ09)
T1 construct: expressed in transfected cells; host or cells: Xenopus oocytes injected with cRNA
T1 sequence (Q9JJ09 1-695): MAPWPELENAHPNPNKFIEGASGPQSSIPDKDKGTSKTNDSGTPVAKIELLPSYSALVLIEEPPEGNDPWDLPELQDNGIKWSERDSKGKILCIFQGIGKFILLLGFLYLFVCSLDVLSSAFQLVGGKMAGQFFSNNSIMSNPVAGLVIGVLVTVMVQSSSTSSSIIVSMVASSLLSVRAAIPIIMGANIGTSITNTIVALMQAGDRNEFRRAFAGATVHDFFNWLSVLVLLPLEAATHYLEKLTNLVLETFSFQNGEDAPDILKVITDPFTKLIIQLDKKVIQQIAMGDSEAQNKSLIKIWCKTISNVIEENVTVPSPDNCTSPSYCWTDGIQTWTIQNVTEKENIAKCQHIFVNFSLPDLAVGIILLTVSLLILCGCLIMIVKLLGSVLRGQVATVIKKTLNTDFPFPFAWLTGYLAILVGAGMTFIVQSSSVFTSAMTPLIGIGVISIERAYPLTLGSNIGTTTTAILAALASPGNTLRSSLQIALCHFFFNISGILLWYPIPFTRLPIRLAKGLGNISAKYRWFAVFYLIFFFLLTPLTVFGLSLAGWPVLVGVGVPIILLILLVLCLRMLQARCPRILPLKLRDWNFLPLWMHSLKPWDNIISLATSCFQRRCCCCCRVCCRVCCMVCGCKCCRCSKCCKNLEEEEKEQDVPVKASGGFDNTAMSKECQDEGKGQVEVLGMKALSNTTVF
Experiment: Sodium-dependent phosphate uptake of Xenopus oocytes which expressed NaPi-2b (32P)
Type: cell-based
Conditions: for IC50: Xenopus oocytes expressing rat NaPi-2b, 32P radioactive phosphorus, read-out: IC50 (phosphate uptake inhibitory activity)
Outline: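 Rat NaPi-2b cloned from small-intestine cDNA; cRNA injected into Xenopus oocytes, expression for 2 days. Phosphate uptake inhibition measured with 32P; percent inhibition at 300 μM and 100 μM read from the same inhibition curve.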

[1] = phosphate uptake, oocytes expressing rat NaPi-2b, determined from inhibition curve

IC50	SMILES	other results
	COCCOc1cc(NC(=O)c2cccc(CSCC(O)CO)c2)c(C(=O)N/N=C/c2ccc(C)cc2)cc1OCCOC (centres unmarked) [Compound 1014, N-[4,5-Bis-(2-methoxy-ethoxy)-2-(4-methyl-benzylidene-hydrazinocarbonyl)-phenyl]-3-(2,3-dihydroxy-propylsulfanylmethyl)-benzamide]	inhibition at 300 µM [1]: 55.2%
< 3 µM	Cc1cccc(/C=N/NC(=O)c2cc(Cl)ccc2NC(=O)c2ccc(CN(C)CCO)cc2)c1 [Compound 414, N-[4-Chloro-2-(3-methyl-benzylidene-hydrazinocarbonyl)-phenyl]-4-{[(2-hydroxy-ethyl)-methyl-amino]-methyl}-benzamide]	
3.72 µM	CCN(CC)CCSCc1cccc(C(=O)Nc2ccc(N3CCCCC3)cc2C(=O)NN=Cc2ccc(OC)cc2)c1 [Compound 879, 3-(2-Diethylamino-ethylsulfanylmethyl)-N-[2-(4-methoxy-benzylidene-hydrazinocarbonyl)-4-piperidin-1-yl-phenyl]-benzamide]	
< 3 µM	O=c1c2cc(Br)ccc2nc(-c2cccc(CSCCO)c2)n1/N=C/c1ccc(Cl)c(C(F)(F)F)c1 [Compound 698, 6-Bromo-3-[(4-chloro-3-trifluoromethyl-benzylidene-)-amino]-2-[3-(2-hydroxy-ethylsulfanylmethyl)-phenyl]-3H-quinazolin-4-one]	
	COc1ccc(/C=N/NC(=O)c2cc(Br)ccc2NC(=O)c2ccc(CNCCCN(C)c3ccccc3)cc2)cc1 [Compound 762, N-[4-Bromo-2-(4-methoxy-benzylidene-hydrazinocarbonyl)-phenyl]-4-{[3-(methyl-phenyl-amino)-propylamino]-methyl}-benzamide]	inhibition at 300 µM [1]: 52.1%
1.86 µM	Cc1cccc(/C=N/NC(=O)c2cc(Cl)ccc2NC(=O)c2cccc(CN3CCC(N4CCCCC4)CC3)c2)c1 [Compound 370, 3-[1,4′]Bipiperidinyl-1′-ylmethyl-N-[4-chloro-2-(3-methyl-benzylidene-hydrazinocarbonyl)-phenyl]-benzamide]	
1.77 µM	CCN(CC)CCN(CCN(CC)CC)Cc1cccc(C(=O)Nc2sc3c(c2C(=O)N/N=C/c2ccc(OC)cc2)CCCC3)c1 [Compound 856, 3-{[Bis-(2-diethylamino-ethyl)-amino]-methyl}-N-[3-(4-methoxy-benzylidene-hydrazinocarbonyl)-4,5,6,7-tetrahydro-benzo[b]thiophen-2-yl]-benzamide; hydrochloride]	
11.3 µM	Cc1cc(/C=N/NC(=O)c2cc(Cl)ccc2NC(=O)c2ccncc2)oc1C [Compound 223, N-[4-Chloro-2-(4,5-dimethyl-furan-2-ylmethylene-hydrazinocarbonyl)-phenyl]-isonicotinamide]	
4.6 µM	COc1ccc(C(=O)Nc2ccccc2C(=O)N/N=C/c2ccc(C)cc2)cc1 [Compound 51, 4-Methoxy-N-[2-(4-methyl-benzylidene-hydrazinocarbonyl)-phenyl]-benzamide]	
	Cc1ccc(/C=N/NC(=O)c2cc(OCC(O)CN3CCCCC3)ccc2NC(=O)c2cccc(CN(CC(C)O)CC(C)O)c2)cc1C (centres unmarked) [Compound 949, 3-{[Bis-(2-hydroxy-propyl)-amino]-methyl}-N-[2-(3,4-dimethyl-benzylidene-hydrazinocarbonyl)-4-(2-hydroxy-3-piperidin-1-yl-propoxy)-phenyl]-benzamide]	inhibition at 300 µM [1]: 72.6%
4.91 µM	O=C(Nc1ccc(Br)cc1C(=O)N/N=C/C=C/c1ccccc1)c1ccncc1 [Compound 347, N-[4-Bromo-2-(3-phenyl-allylidene-hydrazinocarbonyl)-phenyl]-isonicotinamide]	
< 3 µM	Cc1ccc(C=NNC(=O)c2cc(Cl)ccc2NC(=O)c2cccc(CS(=O)(=O)CCO)c2)cc1C [Compound 493, N-[4-Chloro-2-(3,4-dimethyl-benzylidene-hydrazinocarbonyl)-phenyl]-3-(2-hydroxy-ethanesulfonylmethyl)-benzamide]	
0.96 µM	Cc1ccc(/C=N/NC(=O)c2cc(Br)ccc2NC(=O)c2cccs2)cc1C [Compound 161, Thiophene-2-carboxylic acid [4-bromo-2-(3,4-dimethyl-benzylidene-hydrazinocarbonyl)-phenyl]-amide]	
< 3 µM	COc1ccc(/C=N/NC(=O)c2c(C)csc2NC(=O)c2cccc(CSc3nc[nH]n3)c2)cc1 [Compound 556, N-[3-(4-Methoxy-benzylidene-hydrazinocarbonyl)-4-methyl-thiophen-2-yl]-3-(1H-[1,2,4]triazol-3-ylsulfanylmethyl)-benzamide]	
	COc1ccc2cc(/C=N/NC(=O)c3ccccc3NC(=O)c3ccc(OC)c(OC)c3)ccc2c1 [Compound 232, 3,4-Dimethoxy-N-[2-(6-methoxy-naphthalen-2-ylmethylene-hydrazinocarbonyl)-phenyl]-benzamide]	inhibition at 300 µM [1]: 44.9%
0.31 µM	CCN(CC)CCN(C)Cc1cccc(C(=O)Nc2ccc(Cl)cc2C(=O)N/N=C/c2cccc(OC)c2)c1 [Compound 385, N-[4-Chloro-2-(3-methoxy-benzylidene-hydrazinocarbonyl)-phenyl]-3-{[(2-diethylamino-ethyl)-methyl-amino]-methyl}-benzamide]	
4.05 µM	O=C(Nc1ccc(Cl)cc1C(=O)N/N=C/c1cccc(O)c1)c1cccc(CN(CCO)CCO)c1 [Compound 410, 3-{[Bis-(2-hydroxy-ethyl)-amino]-methyl}-N-[4-chloro-2-(3-hydroxy-benzylidene-hydrazinocarbonyl)-phenyl]-benzamide]	
0.29 µM	COc1ccc(C(=O)Nc2ccc(Br)cc2C(=O)N/N=C/c2ccc(Cl)c(C(F)(F)F)c2)cc1OC [Compound 87, N-[4-Bromo-2-(4-chloro-3-trifluoromethyl-benzylidene-hydrazinocarbonyl)-phenyl]-3,4-dimethoxy-benzamide]	
7.01 µM	COc1cc(OC)cc(C(=O)Nc2ccc(Br)cc2C(=O)N/N=C/c2cccc(Cl)c2)c1 [Compound 116, N-[4-Bromo-2-(3-chloro-benzylidene-hydrazinocarbonyl)-phenyl]-3,5-dimethoxy-benzamide]	
4.24 µM	CCOCCN(CCOCC)Cc1ccc(C(=O)Nc2ccc(Br)cc2C(=O)N/N=C/c2cccc(F)c2)cc1 [Compound 737, 4-{[Bis-(2-ethoxy-ethyl)-amino]-methyl}-N-[4-bromo-2-(3-fluoro-benzylidene-hydrazinocarbonyl)-phenyl]-benzamide]	
	COc1cccc(/C=N/NC(=O)c2cc(Br)ccc2NC(=O)c2ccc(CN(C)CC(O)c3ccc(O)cc3)cc2)c1 (centres unmarked) [Compound 727, N-[4-Bromo-2-(3-methoxy-benzylidene-hydrazinocarbonyl)-phenyl]-4-({[2-hydroxy-2-(4-hydroxy-phenyl)-ethyl]-methyl-amino}-methyl)-benzamide]	inhibition at 300 µM [1]: 67.7%
0.88 µM	Cc1ccc(/C=N/NC(=O)c2ccccc2NC(=O)c2cccnc2)cc1C [Compound 133, N-[2-(3,4-Dimethyl-benzylidene-hydrazinocarbonyl)-phenyl]-nicotinamide]	
	Cc1cccc(/C=N/NC(=O)c2cc(Br)ccc2NC(=O)c2ccc(CN3CCC(CCO)CC3)cc2)c1 [Compound 742, N-[4-Bromo-2-(3-methyl-benzylidene-hydrazinocarbonyl)-phenyl]-4-[4-(2-hydroxy-ethyl)-piperidin-1-ylmethyl]-benzamide]	inhibition at 300 µM [1]: 77.6%
1.82 µM	Cc1ccc(/C=N/NC(=O)c2cc(Br)ccc2NC(=O)c2cccc(CSc3ccncc3)c2)cc1C [Compound 199, N-[4-Bromo-2-(3,4-dimethyl-benzylidene-hydrazinocarbonyl)-phenyl]-3-(pyridin-4-ylsulfanylmethyl)-benzamide]	
29.4 µM	COc1cccc(/C=N/NC(=O)c2cc(Br)ccc2NC(=O)c2ccc(CN3CCN(CC(=O)N4CCOCC4)CC3)cc2)c1 [Compound 732, N-[4-Bromo-2-(3-methoxy-benzylidene-hydrazinocarbonyl)-phenyl]-4-[4-(2-morpholin-4-yl-2-oxo-ethyl)-piperazin-1-ylmethyl]-benzamide]	
5.02 µM	COc1ccc(NC(=O)c2ccc(OC)c(OC)c2)c(C(=O)N/N=C/c2ccc(C)cc2)c1 [Compound 144, 3,4-Dimethoxy-N-[4-methoxy-2-(4-methyl-benzylidene-hydrazinocarbonyl)-phenyl]-benzamide]	
26 µM	O=C(Nc1ccc(Br)cc1C(=O)N/N=C/c1ccc(Cl)c(C(F)(F)F)c1)c1cccnc1 [Compound 177, N-[4-Bromo-2-(4-chloro-3-trifluoromethyl-benzylidene-hydrazinocarbonyl)-phenyl]-nicotinamide]	
6.76 µM	O=C(Nc1ccc(N2CCC(O)CC2)cc1C(=O)N/N=C/c1ccc(Cl)c(C(F)(F)F)c1)c1cccc(CSCCO)c1 [Compound 1062, N-[2-(4-Chloro-3-trifluoromethyl-benzylidene-hydrazinocarbonyl)-4-(4-hydroxy-piperidin-1-yl)-phenyl]-3-(2-hydroxy-ethylsulfanylmethyl)-benzamide]	
	COc1ccc(/C=N/NC(=O)c2cc(N3CCC(N4CCCCC4)CC3)ccc2NC(=O)c2cccc(CSCCO)c2)cc1 [Compound 1068]	inhibition at 100 µM (phosphate uptake, oocytes expressing rat NaPi-2b, 100 μM, determined from inhibition curve): 74.4%
